Data on eight compounds can be found in ChEMBL document CHEMBL1151759 (J Med Chem, 2008).

Broadly, the Ki is a measure of affinity in units of concentration, obtained from inhibition or displacement. A higher Ki goes with lower affinity. The term pKb denotes −log10 of the Kb, conventionally taken in molar units. Lower therefore signals a high Kb. One may read the IC50 as the concentration that gives 50% inhibition. The low end stands for greater potency, the high end for weaker potency. Usually Kd stands for the concentration at which binding is half-saturated. A lower Kd goes with a tighter complex. The half-life is the time needed for the level to fall by half in the phase considered.

Molecules are shown by their SMILES.

Series [1] concerns the target T1, Neuropeptide Y receptor type 1 (Homo sapiens, UniProt P25929).
T1 sequence (P25929 whole entry): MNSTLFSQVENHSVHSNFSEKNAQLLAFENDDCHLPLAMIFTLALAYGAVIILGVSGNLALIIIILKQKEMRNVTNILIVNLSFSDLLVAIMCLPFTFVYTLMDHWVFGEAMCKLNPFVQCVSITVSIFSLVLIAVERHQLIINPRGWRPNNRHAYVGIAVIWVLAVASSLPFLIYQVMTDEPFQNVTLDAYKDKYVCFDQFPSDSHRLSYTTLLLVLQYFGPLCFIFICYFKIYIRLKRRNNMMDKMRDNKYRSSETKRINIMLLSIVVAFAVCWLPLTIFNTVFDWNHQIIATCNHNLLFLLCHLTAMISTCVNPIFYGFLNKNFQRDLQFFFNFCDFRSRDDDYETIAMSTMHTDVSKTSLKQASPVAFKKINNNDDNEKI
As to the kind of experiment: Displacement of [3H]propionyl-pNPY from neuropeptide Y1 receptor in human SK-N-MC cells. The series is classed as cell-based. In general terms: In a radioligand displacement assay an active substance lowers the binding of a labelled ligand.

Series [2] addresses T2, Neuropeptide Y receptor type 1 (Homo sapiens) (UniProt P25929).
T2 sequence (whole entry): T1 sequence (P25929 whole entry)

The target in series [3] is T3, Neuropeptide Y receptor type 5 (Homo sapiens, UniProt Q15761).
T3 sequence (Q15761 whole entry): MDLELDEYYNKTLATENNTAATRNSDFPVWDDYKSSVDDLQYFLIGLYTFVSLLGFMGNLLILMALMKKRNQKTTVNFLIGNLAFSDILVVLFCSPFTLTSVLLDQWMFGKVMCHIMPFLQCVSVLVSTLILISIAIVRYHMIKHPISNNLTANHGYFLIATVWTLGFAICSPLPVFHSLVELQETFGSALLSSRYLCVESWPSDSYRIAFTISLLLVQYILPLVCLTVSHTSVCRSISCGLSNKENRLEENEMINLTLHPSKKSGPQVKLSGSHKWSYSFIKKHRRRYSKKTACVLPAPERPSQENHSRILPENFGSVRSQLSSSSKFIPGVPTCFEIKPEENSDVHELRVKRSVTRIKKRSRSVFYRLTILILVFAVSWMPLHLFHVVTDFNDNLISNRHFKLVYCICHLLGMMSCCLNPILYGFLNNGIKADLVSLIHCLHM
As to the kind of experiment: Displacement of Dy-635-pNPY from human neuropeptide Y5 receptor expressed in HEC-1B cells by flow cytometric assay. It is filed as cell-based. (In general: Flow cytometry measures light scatter and fluorescence of single cells or particles in a stream.)

In series [4] the target is T1, Neuropeptide Y receptor type 1. As to the kind of experiment: Binding affinity to neuropeptide Y1 receptor in human MCF7 cells. The series is classed as cell-based.
For series [5] the target is unchanged. Description: Displacement of [3H]UR-MK114 from neuropeptide Y1 receptor in human SK-N-MC cells. It is filed as cell-based.
Series [6] has as its target T4, Neuropeptide Y receptor type 2 (Homo sapiens, UniProt P49146).
T4 sequence (P49146 whole entry): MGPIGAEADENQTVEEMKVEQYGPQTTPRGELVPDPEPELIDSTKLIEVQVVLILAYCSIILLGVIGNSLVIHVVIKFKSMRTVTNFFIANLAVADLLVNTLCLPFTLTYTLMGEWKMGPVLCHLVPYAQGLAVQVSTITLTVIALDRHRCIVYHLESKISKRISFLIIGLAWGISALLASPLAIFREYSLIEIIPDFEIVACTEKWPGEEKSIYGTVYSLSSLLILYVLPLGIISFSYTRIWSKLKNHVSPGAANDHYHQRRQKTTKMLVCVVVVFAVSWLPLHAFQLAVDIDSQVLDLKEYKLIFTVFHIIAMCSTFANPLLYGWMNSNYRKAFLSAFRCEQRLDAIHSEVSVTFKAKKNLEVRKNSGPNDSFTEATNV
As to the kind of experiment: Displacement of Dy-635-pNPY from human neuropeptide Y2 receptor expressed in CHO cells coexpressing Galphaqi5 and aequorin by flow cytometric assay. It is filed as cell-based.

Series [7] has as its target Neuropeptide Y receptor type 4 (Homo sapiens, UniProt P50391). Description: Displacement of Cy5-[K4]-hPP from human neuropeptide Y4 receptor expressed in CHO cells coexpressing Galphaqi5 and aequorin by flow cytometric assay. It is filed as cell-based.
The target in series [8] is T1, Neuropeptide Y receptor type 1. Description: Binding affinity to neuropeptide Y1 receptor in human SK-N-MC cells by kinetic experiment. The series is classed as cell-based.
The nature of series [9]: Chemical stability of compound assessed as half life. It is filed as physicochemical.
Series [10] addresses T1, Neuropeptide Y receptor type 1. Description: Binding affinity to neuropeptide Y1 receptor in human MCF7 cells by kinetic experiment. The series is classed as cell-based.
Series [11] shares this target. Description: Binding affinity to neuropeptide Y1 receptor in human SK-N-MC cells. It is filed as cell-based.

Neuropeptide Y receptor type 4, sequence (P50391 whole entry): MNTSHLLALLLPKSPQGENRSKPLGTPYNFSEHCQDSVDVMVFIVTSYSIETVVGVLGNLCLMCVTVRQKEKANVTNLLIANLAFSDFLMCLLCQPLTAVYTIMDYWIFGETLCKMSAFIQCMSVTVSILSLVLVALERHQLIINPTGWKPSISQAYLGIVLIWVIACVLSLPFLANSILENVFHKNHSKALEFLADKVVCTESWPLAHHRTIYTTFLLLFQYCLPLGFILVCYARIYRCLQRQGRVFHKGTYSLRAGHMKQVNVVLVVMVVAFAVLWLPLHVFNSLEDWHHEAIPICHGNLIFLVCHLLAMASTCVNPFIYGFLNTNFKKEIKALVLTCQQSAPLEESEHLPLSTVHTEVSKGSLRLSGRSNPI

The compound `COC(=O)NC(N)=NCCC[C@@H](NC(=O)C(c1ccccc1)c1ccccc1)C(=O)NCc1ccc(O)cc1` had a Ki in series [1] of 33 nM.

For `CCC(=O)/N=C(/N)NCCC[C@@H](NC(=O)C(c1ccccc1)c1ccccc1)C(=O)NCc1ccc(O)cc1`, the negative logarithm of the Kb (pKb) in [2] came to 9.1. The Ki in series [3] is above 2000 nM; in series [4], 1.2 nM; in series [5], 1 nM; in series [6], above 10000 nM; in [7], above 10000 nM. The same compound had an IC50 in [5] of 2.24 nM. In series [5], this compound had a dissociation constant Kd of 1.2 nM.

In series [5], `CCNC(=O)/N=C(/N)NCCC[C@@H](NC(=O)C(c1ccccc1)c1ccccc1)C(=O)NCc1ccc(O)cc1` displayed an inhibition constant (Ki) of 0.1 nM.

In [5], `CCOC(=O)CNC(=O)/N=C(/N)NCCC[C@@H](NC(=O)C(c1ccccc1)c1ccccc1)C(=O)NCc1ccc(O)cc1` yielded an inhibition constant Ki of 0.1 nM.

`CCC/N=C(/N)NCCC[C@@H](NC(=O)C(c1ccccc1)c1ccccc1)C(=O)NCc1ccc(O)cc1`: the Ki in [1] stood at 27 nM. This counts as double-digit nanomolar.

`[3H]CC([3H])C(=O)/N=C(/N)NCCC[C@@H](NC(=O)C(c1ccccc1)c1ccccc1)C(=O)NCc1ccc(O)cc1` (some centres undefined): the Kd was 1.1 nM in [8], 2.9 nM in series [4], 1.1 nM in series [10] and 1.2 nM in series [11]. In addition, the half-life in series [9] turned out to be 2.2 min.

In [1], `CC(=O)/N=C(/N)NCCC[C@@H](NC(=O)C(c1ccccc1)c1ccccc1)C(=O)NCc1ccc(O)cc1` showed a Ki of 12 nM.

In turn, `CCOC(=O)NC(N)=NCCC[C@@H](NC(=O)C(c1ccccc1)c1ccccc1)C(=O)NCc1ccc(O)cc1` displayed an inhibition constant Ki in series [1] of 4.5 nM.
